# Reference: patent publication US20040039014A1, “Methods and compounds for treating depression and other disorders” (NPS Pharmaceuticals, Inc., priority 1998, published 2004)
# pIC50, pKi: −log10 of the molar value. Structures can show the parent of a compound that is named as a salt. Marks after values point to notes of the source that are not given here.
# Key:
# male C57BL/6 mice = test: Mouse tail-suspension test (TST) with Compound 60; assay type: in vivo; conditions: for Mean duration of immobility: Table VII, 5 mg/kg p.o. single dose, saline control 154.9
# Protocol: For the mouse tail-suspension test with Compound 60, male pathogen-free C57BL/6 mice (Harlan Sprague-Dawley) weighing between 22-25 g were used. Animals were removed from the housing room to the testing area in their own cages and allowed to adapt to the new environment for at least 1 hour before testing. Mice were administered either drug (imipramine, 15 mg/kg i.p.; or Compound 60, various p.o. doses) or saline. Thirty minutes to 24 hours later, the mice were suspended on the edge of a shelf 80 cm above the floor in the testing room by adhesive tape placed approximately 1 cm from the tip of the tail. The duration of immobility was recorded during a test period of 5 minutes. Mice were considered immobile only when they hung passively and completely motionless. Results were expressed as the duration of immobility (sec).
# [1] = target: T1, serotonin transporter site (Rattus norvegicus, UniProt P31652); test: Serotonin reuptake inhibition assay ([3H]citalopram binding, rat forebrain membranes); conditions: Table I; read-out: 5-HT Uptake Ki
# T1 construct: tissue NovaScreen (performed the assay); host or cells: rat forebrain membranes
# T1 sequence (P31652 whole entry): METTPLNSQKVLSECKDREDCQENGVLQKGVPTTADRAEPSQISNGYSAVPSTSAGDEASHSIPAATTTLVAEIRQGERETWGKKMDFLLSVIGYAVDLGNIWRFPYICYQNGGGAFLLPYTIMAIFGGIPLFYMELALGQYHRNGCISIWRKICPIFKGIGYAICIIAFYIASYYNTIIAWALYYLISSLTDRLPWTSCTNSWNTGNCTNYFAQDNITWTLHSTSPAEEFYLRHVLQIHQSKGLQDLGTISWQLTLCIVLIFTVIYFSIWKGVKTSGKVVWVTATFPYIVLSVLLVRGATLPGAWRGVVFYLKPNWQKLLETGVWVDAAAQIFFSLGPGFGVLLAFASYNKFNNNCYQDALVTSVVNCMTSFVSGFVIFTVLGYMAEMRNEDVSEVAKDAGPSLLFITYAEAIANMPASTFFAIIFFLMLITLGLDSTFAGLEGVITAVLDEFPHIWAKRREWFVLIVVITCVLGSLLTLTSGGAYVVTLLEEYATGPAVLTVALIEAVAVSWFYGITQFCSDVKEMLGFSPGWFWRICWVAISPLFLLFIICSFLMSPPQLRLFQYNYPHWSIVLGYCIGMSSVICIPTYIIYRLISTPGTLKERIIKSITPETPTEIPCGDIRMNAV
# Protocol: (§1) Monoamine Transporter Minding Assays
# (§2) Monoamine transporter binding assays (reuptake inhibition assays) were performed by NovaScreen using standard radioligand binding assays. The transporter binding assays are described briefly below:
# Serotonin Reuptake Inhibition Assay
# Rat forebrain membranes were incubated with 0.7 nM [^3H] citalopram, N-methyl, (70-87 Ci/mmol)in 50 mM Tris-HCl (pH 7.4), 120 mM NaCl, and 5 mM KCl at 25° C. for 60 minutes. […] Reactions were terminated by rapid vacuum filtration onto glass fiber filters.
# NMDA receptor = tested on: T2, NMDA receptor; test: NMDA receptor assay (fura-2 cytosolic calcium in cultured rat cerebellar granule cells); assay type: cell-based; conditions: Table I, read-out: fura2 data IC50
# T2 construct: fura2 data IC50; rat cerebellar granule cells
# Protocol: All culture media, antibiotics, and enzymes, with the exception of fetal calf serum (Hyclone Laboratories, Logan, Utah), were purchased from Sigma Chemical Co., St. Louis, Mo. Fura-2/AM was obtained from Molecular Probes, Eugene, Oreg., and was prepared freshly in dimethylsulfoxide (DMSO) before use. Ionomycin (Calbiochem) was stored as a stock solution in DMSO. Nifedipine (Sigma) and nimodipine (RBI) were dissolved in absolute ethanol. […] All other agents were dissolved in phosphate-buffered saline (PBS), and adjusted to pH 7.4
# Preparation of Rat Cerebellar Granule Cell (RCGC) Cultures
# Briefly, primary cultures of cerebellar granule neurons were obtained from 8-day-old rats and plated onto squares of Aclar plastic coated with poly-L-lysine. The plastic squares were placed in 12-well culture plates, and ˜7.5×10^5 cells were added to each well. Cultures were maintained in Eagles's medium containing 25 mM KCl, 10% fetal calf serum, 2 mM glutamine, 100 μg/ml gentamicin, 50 U/ml penicillin, and 50 μg/ml streptomycin at 37° C. in a humid atmosphere of 5%CO2 in air for 24 hr before the addition of cytosine arabinoside (10 μM, final). No changes of culture medium were made until the cells were used for fluorescence recording 6-8 days after plating.
# Measurement of Cytosolic Calcium
# (“Ca^2+-free” buffer contained no added CaCl2 and 30 μM EGTA). The cells were then rinsed with the same buffer, lacking fura-2/AM, and maintained at room temperature until used for measurement of fluorescence, the Aclar squares were transferred into quartz cuvettes containing 2 ml of the HEPES buffer. The cuvette was then placed into a thermostatted holder equipped with a magnetic stirrer in a custom-built spectrofluorimeter (Biomedical Instrumentation Group, University of Pennsylvania, Philadelphia, Pa.). The size of the plastic Aclar square was such as to fit snugly in the cuvette when placed at a diagonal and therefore suspend itself over the spin bar. Fluorescence was measured using excitation and emission wavelengths of 340 and 510 nm, respectively. The amplitude of the evoked increase in fluorescence and subsequent inhibition were recorded and the concentration of [Ca^2+]i was calculated using the formula:
# [Ca^2+]=Kd (F-Fmin)/(Fmax-F) (Eq. 1)
# F=fluorescence amplitude evoked at a particular time point or concentration of compound;
# Fmin=minimum fluorescence determined after the addition of a 2.5 M TRIS/0.3 M EGTA solution;
# Fmax=maximum fluorescence determined following the addition of 7 mM ionomycin in DMSO; and […]
# male NIH-Swiss mice = test: Mouse forced-swim test (FST); assay type: in vivo
# Protocol: For the mouse and rat forced-swim tests, male pathogen-free NIH-Swiss mice (Harlan Sprague-Dawley) weighing between 22-25 g, and male pathogen-free Sprague-Dawley rats (Harlan Sprague-Dawley) weighing between 320-350 g were used. Animals were removed from the housing room to the testing area in their own cages and allowed to adapt to the new environment for at least 1 hour before testing. Mice were administered either drug (imipramine, 10 mg/kg i.p.; or Compound 60, various p.o or i.p. doses) or saline. Thirty minutes to 24 hours later, mice were placed individually in cylinders (diameter: 10 cm; height: 25 cm) filled with 6 cm of water (22-25° C.) for 6 minutes. The duration of immobility during the last 4 minutes of the 6 minute test was scored. A mouse was recorded as immobile when floating motionless or making only those movements necessary to keep its head above water. Results were expressed as the duration of immobility (seconds).
# [2] = target: T3, norepinephrine transporter site (Rattus norvegicus, UniProt Q63380); test: Norepinephrine reuptake inhibition assay ([3H]nisoxetine binding, rat forebrain membranes); conditions: Table I; read-out: NE Uptake Ki
# T3 construct: tissue NovaScreen (performed the assay); host or cells: rat forebrain membranes
# T3 sequence (Q63380 1-617): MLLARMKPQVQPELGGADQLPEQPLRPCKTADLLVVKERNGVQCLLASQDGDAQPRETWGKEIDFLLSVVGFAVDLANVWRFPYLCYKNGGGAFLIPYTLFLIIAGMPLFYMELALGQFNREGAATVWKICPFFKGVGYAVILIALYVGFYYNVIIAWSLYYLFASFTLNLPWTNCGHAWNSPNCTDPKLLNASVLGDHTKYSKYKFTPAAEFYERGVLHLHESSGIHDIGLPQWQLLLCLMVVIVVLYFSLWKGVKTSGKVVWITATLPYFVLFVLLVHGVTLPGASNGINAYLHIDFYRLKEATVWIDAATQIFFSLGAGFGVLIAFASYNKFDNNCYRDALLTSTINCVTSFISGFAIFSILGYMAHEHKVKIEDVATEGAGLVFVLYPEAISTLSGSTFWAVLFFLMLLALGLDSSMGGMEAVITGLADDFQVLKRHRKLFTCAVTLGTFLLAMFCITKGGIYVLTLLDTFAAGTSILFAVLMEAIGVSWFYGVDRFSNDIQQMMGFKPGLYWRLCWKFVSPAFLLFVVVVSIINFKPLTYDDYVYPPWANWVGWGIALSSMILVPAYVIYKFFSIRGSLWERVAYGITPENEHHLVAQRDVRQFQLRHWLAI
# Protocol: as §1, §2
# Norepinephrine Reuptake Inhibition Assay
# Reactions were terminated by rapid vacuum filtration onto glass fiber filters.
# [3] = target: T4, dopamine transporter site (Cavia porcellus, UniProt H0WCX4); test: Dopamine reuptake inhibition assay ([3H]WIN 35428 binding, guinea pig striatal membranes); conditions: Table I; read-out: DA Uptake Ki
# T4 construct: tissue NovaScreen (performed the assay); host or cells: guinea pig striatal membranes
# T4 sequence (H0WCX4 1-619): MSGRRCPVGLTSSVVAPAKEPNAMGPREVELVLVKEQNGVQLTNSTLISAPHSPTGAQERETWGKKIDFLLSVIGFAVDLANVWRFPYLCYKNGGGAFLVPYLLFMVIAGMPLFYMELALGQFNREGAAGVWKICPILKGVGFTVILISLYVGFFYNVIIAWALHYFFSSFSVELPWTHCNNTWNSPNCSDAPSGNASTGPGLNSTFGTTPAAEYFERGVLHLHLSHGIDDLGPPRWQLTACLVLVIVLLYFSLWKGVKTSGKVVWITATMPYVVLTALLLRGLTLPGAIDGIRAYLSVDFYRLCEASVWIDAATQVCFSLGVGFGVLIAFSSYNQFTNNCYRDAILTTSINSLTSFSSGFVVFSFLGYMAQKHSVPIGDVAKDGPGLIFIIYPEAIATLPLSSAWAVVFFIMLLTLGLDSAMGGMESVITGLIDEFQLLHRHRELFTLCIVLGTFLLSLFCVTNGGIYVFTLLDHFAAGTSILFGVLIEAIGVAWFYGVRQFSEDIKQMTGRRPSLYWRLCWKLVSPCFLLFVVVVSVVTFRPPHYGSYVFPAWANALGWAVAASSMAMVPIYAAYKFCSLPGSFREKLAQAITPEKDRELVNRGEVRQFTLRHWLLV
# Protocol: as §1, §2
# Dopamine Reuptake Inhibition Assay:
# Reactions were terminated by rapid vacuum filtration onto glass fiber filters. Bound radioactivity was determined using liquid scintillation spectrometry and experimental values were compared to control values to determine binding to the dopamine transporter site based on Madras, et al., Molec.
structure (smiles),measurement,setting,value
"CNCCC(c1cccc(F)c1)c1cccc(F)c1 [Compound 60, N-Methyl-3.,3-bis(3-fluorophenyl)propylamine hydrochloride]",Duration of Immobility,"male C57BL/6 mice; Table IX (experiment #2), 0.625 mg/kg single oral dose 60 minutes prior to testing, saline control 149.1",143.3 s
same,Duration of Immobility,"male C57BL/6 mice; Table IX (experiment #2), 1.25 mg/kg single oral dose 60 minutes prior to testing, saline control 149.1",125.8 s
same,Duration of Immobility,"male C57BL/6 mice; Table IX (experiment #2), 2.5 mg/kg single oral dose 60 minutes prior to testing, saline control 149.1",69.6* sec
same,Duration of Immobility,"male C57BL/6 mice; Table IX (experiment #2), 5 mg/kg single oral dose 60 minutes prior to testing, saline control 149.1",69.5* sec
same,Duration of Immobility,"male C57BL/6 mice; Table IX (experiment #2), 10 mg/kg single oral dose 60 minutes prior to testing, saline control 149.1",15.6* sec
same,Mean duration of immobility,male C57BL/6 mice; time post-dose 0.5,84.9* sec
same,Mean duration of immobility,male C57BL/6 mice; time post-dose 1,74.7* sec
same,Mean duration of immobility,male C57BL/6 mice; time post-dose 2,93.0* sec
same,Mean duration of immobility,male C57BL/6 mice; time post-dose 4,109.7 s
same,Mean duration of immobility,male C57BL/6 mice; time post-dose 6,125.5 s
same,Mean duration of immobility,male C57BL/6 mice; time post-dose 24,177.7 s
same,Duration of Immobility,"male C57BL/6 mice; Table VIII (experiment #1), 2.5 mg/kg single oral dose 60 minutes prior to testing, saline control 210.1",130.7* sec
same,Duration of Immobility,"male C57BL/6 mice; Table VIII (experiment #1), 5 mg/kg single oral dose 60 minutes prior to testing, saline control 210.1",123.5* sec
same,Duration of Immobility,"male C57BL/6 mice; Table VIII (experiment #1), 10 mg/kg single oral dose 60 minutes prior to testing, saline control 210.1",47.8* sec
same,time of peak effect (reduction in the duration of immobility) post-dosing,"male C57BL/6 mice; mouse TST, single 5-mg/kg oral dose",60 min
same,pKi,[1],7.17
same,pIC50,NMDA receptor,6.38
same,Mean duration of immobility,"male NIH-Swiss mice; Table III, 5 mg/kg p.o. single dose, time post-dose 0.5, saline control 128.2",96.1 s
same,Mean duration of immobility,"male NIH-Swiss mice; Table III, 5 mg/kg p.o. single dose, time post-dose 1, saline control 128.2",38.8* sec
same,Mean duration of immobility,"male NIH-Swiss mice; Table III, 5 mg/kg p.o. single dose, time post-dose 2, saline control 128.2",66.2* sec
same,Mean duration of immobility,"male NIH-Swiss mice; Table III, 5 mg/kg p.o. single dose, time post-dose 4, saline control 128.2",66.9* sec
same,Mean duration of immobility,"male NIH-Swiss mice; Table III, 5 mg/kg p.o. single dose, time post-dose 6, saline control 128.2",76.8* sec
same,Mean duration of immobility,"male NIH-Swiss mice; Table III, 5 mg/kg p.o. single dose, time post-dose 24, saline control 128.2",124.8 s
same,Mean duration of immobility,"male NIH-Swiss mice; Table IV, 0.625 mg/kg single oral dose 60 minutes prior to testing, saline control 129.7",153.3 s
same,Mean duration of immobility,"male NIH-Swiss mice; Table IV, 1.25 mg/kg single oral dose 60 minutes prior to testing, saline control 129.7",72.3* sec
same,Mean duration of immobility,"male NIH-Swiss mice; Table IV, 2.5 mg/kg single oral dose 60 minutes prior to testing, saline control 129.7",64.5* sec
same,Mean duration of immobility,"male NIH-Swiss mice; Table IV, 5 mg/kg single oral dose 60 minutes prior to testing, saline control 129.7",56.6* sec
same,Mean duration of immobility,"male NIH-Swiss mice; Table IV, 10 mg/kg single oral dose 60 minutes prior to testing, saline control 129.7",68.7* sec
same,Mean duration of immobility,"male NIH-Swiss mice; Table V, 0.625 mg/kg single i.p. dose 30 minutes prior to testing, saline control 137.8",139.5 s
same,Mean duration of immobility,"male NIH-Swiss mice; Table V, 1.25 mg/kg single i.p. dose 30 minutes prior to testing, saline control 137.8",85.6* sec
same,Mean duration of immobility,"male NIH-Swiss mice; Table V, 2.5 mg/kg single i.p. dose 30 minutes prior to testing, saline control 137.8",68.5* sec
same,Mean duration of immobility,"male NIH-Swiss mice; Table V, 5 mg/kg single i.p. dose 30 minutes prior to testing, saline control 137.8",89.6* sec
same,Mean duration of immobility,"male NIH-Swiss mice; Table V, 10 mg/kg single i.p. dose 30 minutes prior to testing, saline control 137.8",106.1 s
same,time of peak effect (reduction in the duration of immobility) post-dosing,"male NIH-Swiss mice; mouse FST, single dose 5 mg/kg p.o.",60 min
same,pKi,[2],< 5.00
same,pKi,[3],6.04
